Reference: ChEMBL document CHEMBL5335829, “Akedanones A-C, In Vitro and In Vivo Antiplasmodial 2,3-Dihydronaphthoquinones Produced by Streptomyces sp. K20-0187” (J Nat Prod, 2024)
Converted amounts (≈) assume the structure as drawn. The source made the active and inactive calls. No cut-off for these calls is given here.

How the values were obtained:
[1] = tested on: Plasmodium falciparum; test: Antiplasmodial activity against chloroquine-resistant Plasmodium falciparum K1 assessed as parasite growth inhibition; assay type: functional, organism-based
[2] = tested on: Plasmodium falciparum; test: Antiplasmodial activity against chloroquine-sensitive Plasmodium falciparum FCR3 assessed as parasite growth inhibition; assay type: functional, organism-based
[3] = Cytotoxicity against human MRC5 cells assessed as inhibition of cell growth; assay type: toxicity, cell-based
[4] = Selectivity index, ratio of IC50 for cytotoxicity against human MRC5 cells assessed as inhibition of cell growth to IC50 for antiplasmodial activity against chloroquine-resistant Plasmodium falciparum K1 assessed as parasite growth inhibition; assay type: toxicity, cell-based; conditions: MRC5 cells versus Plasmodium falciparum K1, read-out: Ratio IC50
[5] = Selectivity index, ratio of IC50 for cytotoxicity against human MRC5 cells assessed as inhibition of cell growth to IC50 for antiplasmodial activity against […] assessed as parasite growth inhibition; assay type: toxicity, cell-based; conditions: MRC5 cells versus Plasmodium falciparum FCR3, read-out: Ratio IC50
[6] = tested on: Staphylococcus aureus; test: Antimicrobial activity against Staphylococcus aureus KB210 ATCC 6538P at > 10 ug incubated for 1 to 2 days by paper disc method; assay type: functional, organism-based; conditions: dose > 10.0 µg, time 1-2 day
[7] = tested on: Staphylococcus aureus; test: Antimicrobial activity against Staphylococcus aureus KB210 ATCC 6538P assessed as reduction in bacterial growth incubated for 1 to 2 days by paper disc method; assay type: functional, organism-based; conditions: time 1-2 day
[8] = tested on: Kocuria rhizophila; test: Antimicrobial activity against Kocuria rhizophila KB212 ATCC 9341 assessed as reduction in bacterial growth incubated for 1 to 2 days by paper disc method; assay type: functional, organism-based; conditions: time 1-2 day
[9] = tested on: Escherichia coli; test: Antimicrobial activity against Escherichia coli KB213 NIHJ assessed as reduction in bacterial growth incubated for 1 to 2 days by paper disc method; assay type: functional, organism-based; conditions: time 1-2 day
[10] = tested on: Xanthomonas oryzae; test: Antimicrobial activity against Xanthomonas oryzae KB88 assessed as reduction in bacterial growth incubated for 1 to 2 days by paper disc method; assay type: functional, organism-based; conditions: time 1-2 day
[11] = tested on: Candida albicans; test: Antimicrobial activity against Candida albicans KF assessed as reduction in […] growth KF1 ATCC 64584 incubated for 1 to 2 days by paper disc method; assay type: functional, organism-based; conditions: time 1-2 day
[12] = tested on: Plasmodium falciparum; test: Antimalarial activity against chloroquine-resistant Plasmodium falciparum K1 assessed as parasite growth inhibition; assay type: functional, organism-based
[13] = Selectivity index, ratio of IC50 for cytotoxicity against human MRC5 cells assessed as inhibition of cell growth to IC50 for antimalarial activity against chloroquine-resistant Plasmodium falciparum K1 assessed as parasite growth inhibition; assay type: toxicity, cell-based; conditions: MRC5 cells versus Plasmodium falciparum K1, read-out: Ratio IC50
[14] = Selectivity index, ratio of IC50 for cytotoxicity against human MRC5 cells assessed as inhibition of cell growth to IC50 for antimalarial activity against […] assessed as parasite growth inhibition; assay type: toxicity, cell-based; conditions: MRC5 cells versus Plasmodium falciparum FCR3, read-out: Ratio IC50
[15] = tested on: Plasmodium berghei; test: Antiplasmodial activity against Plasmodium berghei infected in ICR mouse model assessed as reduction in parasitaemia at 5 mg/kg, ip measured for 4 days by peters 4 day suppressive test; assay type: functional; design: scale not given: the % may be the effect or the level left
[16] = Toxicity in ICR mouse assessed as body weight loss at 5 mg/kg, ip measured for 4 days; assay type: organism-based; conditions: in vivo, 96 h, time 4 day
[17] = tested on: Kocuria rhizophila; test: Antimicrobial activity against Kocuria rhizophila KB212 ATCC 9341 at 30 ug incubated for 1 to 2 days by paper disc method; assay type: functional, organism-based; conditions: dose 30.0 µg, time 1-2 day
[18] = Acute toxicity in ICR mouse assessed as sedation at 60 mg/kg, ip and measured for 2 hrs; assay type: organism-based; conditions: in vivo
[19] = tested on: Plasmodium falciparum; test: Antiplasmodial activity against Plasmodium falciparum Dd2 assessed as inhibition of parasite growth; assay type: functional, organism-based
[20] = tested on: B16; test: Cytotoxicity against mouse B16 cells assessed as reduction in cell growth incubated for 3 days; assay type: functional, cell-based; conditions: B16, 72 h
[21] = tested on: HeLa S3; test: Cytotoxicity against human HeLa S3 cells assessed as reduction in cell growth incubated for 3 days; assay type: functional, cell-based; conditions: HeLa S3, 72 h

Structure (SMILES)	IC50 [1]	IC50 [2]	IC50 [3]	selectivity ratio [4]	selectivity ratio [5]	Activity [6]	Activity [7]	Activity [8]	Activity [9]	Activity [10]	Activity [11]	Activity [15]	Activity [16]	further results
C=CC(C)(C)c1c(O)cc2c(c1O)C(=O)[C@@](C)(O)[C@H](CC=C(C)C)C2=O	43.3 µM	51.2 µM	94.2 µM	2.2	1.8	Active	Active	Active	Active	Active	Active	–	–	–
C[C@@H]1CC[C@H]2[C@@H](C)C(=O)O[C@@H]3O[C@@]4(C)CC[C@@H]1[C@]32OO4 [ARTEMISININ]	–	–	> 25 µM	–	–	–	–	–	–	–	–	–	–	IC50 [12]: 0.03 µM; selectivity ratio [13]: > 800; selectivity ratio [14]: > 800
CCN(CC)CCCC(C)Nc1ccnc2cc(Cl)ccc12 (centres undefined) [CHLOROQUINE]	–	–	> 25 µM	–	–	–	–	–	–	–	–	–	–	–
C[C@H]1[C@H](OC(=O)CCC(=O)O)O[C@@H]2O[C@@]3(C)CC[C@H]4[C@H](C)CC[C@@H]1[C@@]24OO3 [ARTESUNATE]	–	–	–	–	–	–	–	–	–	–	–	94.2%	Non-Toxic	–
COC1=C(C)C(=O)c2c(cc3c(c2O)C(C)(CCC=C(C)C)C(C)O3)C1=O (centres undefined)	0.3 µM	0.06 µM	1.7 µM	5.7	28.3	–	Active	Active	Active	Active	Active	43.1%	Non-Toxic	Activity [17]: inactive
C=CC(C)(C)c1c(O)cc2c(c1O)C(=O)[C@@]1(C)O[C@@]1(CC=C(C)C)C2=O	0.2 µM	0.08 µM	0.7 µM	3.5	8.8	Active	Active	Active	Active	Active	Active	47.6%	Non-Toxic	Activity [18]: Non-Toxic
CC(C)=CCC1=C(O)C(=O)c2c(O)ccc(O)c2C1=O	–	–	–	–	–	–	–	–	–	–	–	–	–	IC50 [19]: 0.82 µg/mL (≈ 2.99 µM)
COC1=C(C)C(=O)c2c(cc(O)c3c2O[C@H](C)[C@]3(C)CCC=C(C)C)C1=O	–	–	–	–	–	–	–	–	–	–	–	–	–	IC50 [20]: 0.63 µg/mL (≈ 1.7 µM); IC50 [21]: 1.22 µg/mL (≈ 3.29 µM)
C=CC(C)(C)c1c(O)cc2c(c1O)C(=O)[C@@](C)(O)[C@@H](CC=C(C)C)C2=O	14.5 µM	21.7 µM	68.8 µM	4.7	3.2	Active	Active	Active	Active	Active	Active	–	–	–
